Tests used:
[1] = system: murine P388 lymphocytic leukemia cell line; assay: Murine P388 lymphocytic leukemia cell line growth inhibition; format: cell-based; details: in DMSO
Experimental: (§1) Cancer Cell Line Methods. The National Cancer Institute's standard sulforhodamine B assay was used to assess inhibition of human cancer cell growth. The murine P388 lymphocytic leukemia cell line results were obtained using 10% horse serum/Fisher medium with incubation for 24 hours.

[2] = system: BXPC-3 (pancreas adenocarcinoma); assay: NCI sulforhodamine B human cancer cell growth inhibition, BXPC-3; format: cell-based; details: in DMSO
Experimental: as §1

[3] = system: MCF-7 (breast adenocarcinoma); assay: NCI sulforhodamine B human cancer cell growth inhibition, MCF-7; format: cell-based; details: in DMSO
Experimental: as §1

SF268 (CNS glioblastoma) = assay: NCI sulforhodamine B human cancer cell growth inhibition, SF268; format: cell-based; details: in DMSO
Experimental: as §1

[4] = system: NCI-H460 (lung large cell); assay: NCI sulforhodamine B human cancer cell growth inhibition, NCI-H460; format: cell-based; details: in DMSO
Experimental: as §1

[5] = system: KML20L2 (colon adenocarcinoma); assay: NCI sulforhodamine B human cancer cell growth inhibition, KML20L2; format: cell-based; details: in DMSO
Experimental: as §1

[6] = system: DU-145 (prostate carcinoma); assay: NCI sulforhodamine B human cancer cell growth inhibition, DU-145; format: cell-based; details: in DMSO
Experimental: as §1

[7] = system: murine P388 lymphocytic leukemia (in vivo); details: dose levels from 4.0 to 800 mg/kg, 123 = 23% increase in median survival time; cited from earlier work
[8] = system: in vivo L-1210 lymphoid leukemia; details: cited from earlier work
[9] = system: human epidermoid carcinoma of the nasopharynx (KB) cell line; details: cited from earlier work

Cell line inhibition value GI50 [1] [mg/L] | SMILES | Cell line inhibition value GI50 [2] [mg/L] | Cell line inhibition value GI50 [3] [mg/L] | Cell line inhibition value GI50 (SF268 (CNS glioblastoma)) [mg/L] | Cell line inhibition value GI50 [4] [mg/L] | Cell line inhibition value GI50 [5] [mg/L] | Cell line inhibition value GI50 [6] [mg/L] | T/C [7] | Activity against in vivo L-1210 lymphoid leukemia [8] | Activity against KB cell line [9]
0.29 | CCCCCCCCCCC/C=C/[C@@H](O)[C@H](CO[C@@H]1O[C@H](CO)[C@H](O)[C@H](O)[C@H]1O)NC(=O)CCCCCCCCCCCCCCCCC [Compound 4, 1-O-β-D-galactopyranosyl-2S-octadecanoylamino-3R-hydroxy-4E-hexadecene] | 0.93 | 0.44 | 1.5 | 0.49 | 0.41 | 2.6 | – | – | –
0.25 | CCCCCCCCCCC/C=C/[C@@H](O)[C@H](CO[C@@H]1O[C@H](CO)[C@H](O)[C@H](O)[C@H]1O)NC(=O)CCCCCCCCCCCCCCC [Compound 3, 1-O-β-D-galactopyranosyl-2S-hexadecanoylamino-3R-hydroxy-4E-hexadecene] | 1.6 | 0.48 | 1.9 | 0.55 | 0.48 | 2.6 | – | – | –
0.27 | CCCCCCCCCCC/C=C/[C@@H](O)[C@H](CO[C@@H]1O[C@H](CO)[C@@H](O)[C@H](O)[C@H]1O)NC(=O)CCCCCCCCCCCCCCC [Compound 1, 1-O-β-D-glucopyranosyl-2S-hexadecanoylamino-3R-hydroxy-4E-hexadecene] | 0.71 | 0.44 | 0.98 | 0.34 | 0.35 | 1.6 | – | – | –

Continued, molecule first:

SMILES | Cell line inhibition value GI50 [1] [mg/L] | Cell line inhibition value GI50 [2] [mg/L] | Cell line inhibition value GI50 [3] [mg/L] | Cell line inhibition value GI50 (SF268 (CNS glioblastoma)) [mg/L] | Cell line inhibition value GI50 [4] [mg/L] | Cell line inhibition value GI50 [5] [mg/L] | Cell line inhibition value GI50 [6] [mg/L] | T/C [7] | Activity against in vivo L-1210 lymphoid leukemia [8] | Activity against KB cell line [9]
CCCCCCCCCCC/C=C/[C@@H](O)[C@H](CO[C@@H]1O[C@H](CO)[C@@H](O)[C@H](O)[C@H]1O)NC(=O)CCCCCCCCCCCCCCCCC [Compound 2, 1-O-β-D-glucopyranosyl-2S-octadecanoylamino-3R-hydroxy-4E-hexadecene] | 0.15 | 1.0 | 0.39 | 1.9 | 0.53 | 0.35 | 1.7 | – | – | –
NCCS(=O)(=O)O [taurine] | – | – | – | – | – | – | – | ≤ 123 | inactive | inactive
